The text below walks through data of paper PMC10754118, “Lipophilic Nucleoside Triphosphate Prodrugs of Anti‐HIV Active Nucleoside Analogs as Potential Antiviral Compounds” (Advanced Science, 2023).

As a reminder, the CC50 is the concentration at which the toxic effect on the cells reaches its halfway point. Low values mean harm at low concentration, high ones better tolerance by the cells.

A short description of data set [1]: Chemical hydrolysis in phosphate buffer saline (PBS, pH 7.3). Format: physicochemical. Conditions: PBS pH 7.3, 37 °C, read-out: PBS pH 7.3 t 1/2 (converted). As for the experimental part:
(§1) Part 4. Chemical Hydrolysis of TriPPPro-compounds 10 and 20.
Second prepare 1.9 mM hydrolysis […]
(§2) Then, aliquots of 50 µL human

A short description of data set [2]: in vitro. Conditions: human. As for the experimental part: The hydrolysis properties of TriPPPro‐compounds 10 and 20 were evaluated in phosphate buffer saline (PBS, pH 7.3), pig liver esterase (PLE) or CEM/0 cell extracts. In both cases, hydrolysis products were analyzed by means of analytical RP18‐HPLC and the hydrolysis half‐lives (Table 1 , t1/2 ) of TriPPPro‐compounds 10 and 20 were calculated after complete consumption of the starting materials.
The hydrolysis of TriPPPro‐compounds 10 and 20 was carried out with CEM/0 cell extracts as well. […]
Part 6. Enzyme-Catalyzed Hydrolysis of TriPPPro-compounds 10 and 20 in CEM Cell […]
First prepare 3.0 mM hydrolysis solutions of Tri PPPro-compounds 10 and 20 in DMSO and H2O: 21 µL stock solution (50 mM in DMSO) and 154 µL DMSO, and 175 µL Milli-Q water. Three-twelve different samples (20 µL 3.0 mM hydrolysis solutions) were prepared in 2 mL Eppendorf® vials. Then, aliquots of 50 µL human CEM cell extracts were added to these samples and the reaction was started. The samples were incubated at 37 °C in a thermomixer for different time periods. The reaction was stopped by addition of 150 µL MeOH and kept on ice for 5 min. After centrifugation at 14,000 rpm for 12 min, the supernatants were filtered (Chromafil RC-20/15 MS, 0.2 μm) and stored in liquid nitrogen. When testing, aliquots of 60 µL (injection volume) were analyzed by analytical HPLC (HPLC Method). The calculation of t1/2 was obtained using Origin again.
Part 7. Hydrolysis of TriPPPro-compounds 10 and 20 in human plasma.
µL 3.0 mM hydrolysis solutions) were prepared in 2 mL Eppendorf® vials.

Another data set deals with pig liver esterase (PLE). Nature of the data set: Hydrolysis with pig liver esterase (PLE). Conditions: pig liver esterase (PLE) in PBS, PLE in PBS pH 7.3, 37 °C, read-out: PLE t 1/2 (converted). Format: in vitro ADME.
Source text: Next, TriPPPro‐compounds 10 and 20 were exposed to PLE in PBS (pH 7.3) and the half‐lives of TriPPPro‐compounds 10 and 20 are listed in Table 1. […] In contrast, the cleavage of the AB (C4) masking group in TriPPPro‐compounds 10by–hy and 10bz–hz was triggered by ester hydrolysis and yielded the corresponding γ‐alkylated nucleoside triphosphate derivatives 20 (Figure 3B,D) and 21 (Figures S17 and S18, Supporting Information), respectively. […] Moreover, a very small amount of NDPs was observed, probably due to a reaction involving a nucleophilic reaction at the γ‐phosphate or γ‐phosphonate moiety (pathways d and f, Scheme 5). […]
as §1
Second prepare 1.9 mM hydrolysis
Part 5. Hydrolysis of TriPPPro-compounds 10 and 20 with PLE .
Second, 125 µL DMSO and 833 µL
62.5 µL of PLE solution in PBS (100
mixture was stored in the freezer (- 30 °C).
by analytical HPLC (HPLC Method).
similar to that for the chemical hydrolysis studies. […]
as §2

A short description of data set [3]: in vitro. To be noted: human, CEM/0 cells (wild-type CD4+ T-cells). On the procedure: All TriPPPro‐compounds 10 and 20, as well as their parent nucleosides and the corresponding NTPs, were evaluated for their antiviral activity (expressed as EC50 values) against HIV‐1 (wild‐type CEM/0 cells) and HIV‐2 (wild‐type CEM/0 cells and thymidine kinase‐deficient (CEM/TK^−) cells) with concomitant determination of cytotoxicity in the same cell line (Table 3 ).

In the next data set the test system is HIV‐2 [ROD)]. Nature of the data set: Anti-HIV activity, HIV-2 in thymidine kinase-deficient CEM/TK^− cells. In kind it is cell-based. On the procedure: (§3) Part 9. Anti-HIV activity assay.
(§4) The produce was used as previously reported. 5 Inhibition of HIV-1(IIIB)- and HIV-2(ROD)-induced cytopathogenicity in wild-type CEM/0 and thymidine kinase-deficient CEM/TK– cell cultures was measured in […]
(§5) containing appropriate dilutions of the test compounds. After 4−5 days of incubation at 37 °C in a CO2-controlled humidified atmosphere, CEM giant (syncytium) cell formation was examined microscopically. The […]
(§6) giant cell formation by 50%.
(§7) Part 10. Primer-extension assays. […]

The next data set has as its system HIV‐2 [ROD]. Nature of the data set: Anti-HIV activity, HIV-2 in wild-type CEM/0 cells. Format: cell-based. Conditions: Human immunodeficiency virus 2, CCRF-CEM, read-out: Antiviral activity CEM/0 HIV‐2 [ROD] EC50. As for the experimental part: as §3, §4, §5, §6, §7
A further data set deals with HIV‐1 [HE]. Kind of data set: Anti-HIV activity, HIV-1 in wild-type CEM/0 cells. Format: cell-based. Conditions: Human immunodeficiency virus 1, CCRF-CEM, read-out: Antiviral activity CEM/0 HIV‐1 [HE] EC50.
Where [4] appears, read: Human immunodeficiency virus 2, CEM-TK(-), thymidine kinase-deficient CEM/TK^− cells, mean ±SD n = 2–3; read-out: Antiviral activity CEM/TK^− HIV‐2 [ROD)] EC50.
Setting [5] is: wild-type CEM/0 cells, mean ±SD n = 2–3.

Like-named read-outs stand apart in the source and are kept apart here. Where only a bound is given, the exact number is not on record here.

Consider `CCCCCCCCCCCCCCCCCCOP(=O)(OCCCC)OP(=O)(O)OP(=O)(O)OC[C@H]1O[C@@H](n2cc(/C=C/Br)c(=O)[nH]c2=O)C[C@@H]1O` (stereo partly drawn) [10gv], for which, in data set [1], the half-life at 1.9 mM was greater than 83.3 days. The same compound registered a half-life at 0.86 mM in “in vitro [2]” greater than 10 h. Besides, the half-life at 0.45 mM in the data set with pig liver esterase (PLE) was greater than 150 h. This compound also yielded a half-maximal cytotoxic concentration (CC50) in the data set “in vitro [3]” of 48 ± 4.2 µM. Besides, the EC50 in the data set on HIV‐2 [ROD)] (setting [4]) was 36.5 ± 34.7 µM; in the data set with HIV‐2 [ROD] (setting [5]), 5.37 ± 0.69 µM; with HIV‐1 [HE] (setting [5]), greater than 10 µM.

As to `CCCCCCCCCCCCCCCCCCOP(=O)(O)OP(=O)(O)OP(=O)(O)OC[C@H]1O[C@@H](n2cc(/C=C/Br)c(=O)[nH]c2=O)C[C@@H]1O` [20g], the half-life at 1.9 mM in data set [1] is greater than 83.3 days. In the data set “in vitro [2]”, the half-life at 0.86 mM was greater than 20 h. Further, the half-life at 0.45 mM with pig liver esterase (PLE) was greater than 150 h. For the same compound, the CC50 in “in vitro [3]” was greater than 100 µM. Besides, the figures for the EC50 with HIV‐2 [ROD)] (setting [4]), in the data set on HIV‐2 [ROD] (setting [5]) and in the data set with HIV‐1 [HE] (setting [5]) were 15.7 ± 0.98 µM, greater than 10 µM and greater than 10 µM, respectively.

For the compound `CCCCCCCCCCCCCCCCCCOP(=O)(OCCCC)OP(=O)(O)OP(=O)(O)OC[C@H]1O[C@@H](n2cc(Cl)c(=O)[nH]c2=O)C[C@@H]1F` (stereo partly drawn) [10dv], the half-life at 1.9 mM in data set [1] is greater than 83.3 days. The half-life at 0.86 mM in the data set “in vitro [2]” is greater than 20 h. In addition, the half-life at 0.45 mM in the data set with pig liver esterase (PLE) was greater than 150 h. In addition, the CC50 in “in vitro [3]” was 50.1 ± 10.2 µM. For the same compound, the EC50 in the data set with HIV‐2 [ROD)] (setting [4]) is greater than 20 µM; in the data set with HIV‐2 [ROD] (setting [5]), 4.81 ± 4.61 µM; in the data set with HIV‐1 [HE] (setting [5]), 2.28 ± 0.68 µM.

Consider `CCCCCCCCCCCCCCCCCCOP(=O)(OCc1ccc(OC(=O)CCCC)cc1)OP(=O)(O)OP(=O)(O)OC[C@H]1O[C@@H](n2cc(/C=C/Br)c(=O)[nH]c2=O)C[C@@H]1O` (stereo partly drawn) [10gy], for which, in data set [1], the half-life at 1.9 mM was 25 days. For the same compound, the half-life at 0.45 mM in the data set with pig liver esterase (PLE) is 0.3 h. The compound further returned a CC50 in “in vitro [3]” of 52.1 µM. The EC50 in the data set on HIV‐2 [ROD)] (setting [4]) was 11.1 ± 1.34 µM; in the data set on HIV‐2 [ROD] (setting [5]) it was 2.87 ± 1.72 µM; in the data set on HIV‐1 [HE] (setting [5]) it was 8.57 ± 5.02 µM.

For `CCCCCCCCCCCCCCCCCCOP(=O)(OCc1ccc(OC(=O)CCCC)cc1)OP(=O)(O)OP(=O)(O)OC[C@@H]1C=C[C@H](n2cnc3c(NC4CC4)nc(N)nc32)C1` (stereo partly drawn) [10hy], the half-life at 1.9 mM in data set [1] was 1.92 days. Moreover, in “in vitro [2]”, the half-life at 0.86 mM was 1.3 h. Moreover, the half-life at 0.45 mM in the data set on pig liver esterase (PLE) is 0.97 h. The compound further came in with a CC50 in “in vitro [3]” greater than 100 µM. Besides, the EC50 with HIV‐2 [ROD)] (setting [4]) turned out to be 0.21 ± 0.11 µM; with HIV‐2 [ROD] (setting [5]) it was 0.29 ± 0.16 µM; in the data set on HIV‐1 [HE] (setting [5]), 0.96 ± 0.49 µM.

`CCCCCCCCCCCCCCCCCCP(=O)(OCCCC)OP(=O)(O)OP(=O)(O)OC[C@H]1O[C@@H](n2cc(C)c(=O)[nH]c2=O)C[C@@H]1N=[N+]=[N-]` (stereo partly drawn) [10bx]: the half-life at 1.9 mM in data set [1] was greater than 62.5 days. In “in vitro [2]”, this compound came in with a half-life at 0.86 mM greater than 20 h. Further, the half-life at 0.45 mM in the data set on pig liver esterase (PLE) was greater than 150 h. This compound yielded a half-maximal cytotoxic concentration (CC50) in “in vitro [3]” greater than 100 µM. Besides, the EC50 in the data set with HIV‐2 [ROD)] (Human immunodeficiency virus 2, CEM-TK(-), read-out: Antiviral activity CEM/TK^− HIV‐2 [ROD)] EC50) was determined as 1.19 ± 0.79 µM; with HIV‐2 [ROD] it was 0.031 ± 0.005 µM; in the data set on HIV‐1 [HE], 0.12 ± 0.088 µM.

With `CCCCCCCCCCCCCCCCCCOP(=O)(OCCCC)OP(=O)(O)OP(=O)(O)OC[C@@H]1O[C@H](n2cc(F)c(N)nc2=O)CS1` (stereo partly drawn) [10cv, γ‐(C4;C18)‐FTCTP], in data set [1], the half-life at 1.9 mM is greater than 83.3 days. The compound further returned a half-life at 0.86 mM in “in vitro [2]” greater than 10 h. Moreover, the half-life at 0.45 mM in the data set with pig liver esterase (PLE) was greater than 150 h. For the same compound, the half-maximal cytotoxic concentration (CC50) in “in vitro [3]” came to 51.2 ± 7.7 µM. Moreover, the EC50 in the data set on HIV‐2 [ROD)] (setting [4]) worked out at 0.0032 µM; in the data set on HIV‐2 [ROD] (setting [5]) it was 0.074 ± 0.027 µM; with HIV‐1 [HE] (setting [5]), 0.039 ± 0.035 µM.
